Data reported in PMC4954948, “Functional and modular analyses of diverse endoglucanases from Ruminococcus albus 8, a specialist plant cell wall degrading bacterium” (Scientific Reports, 2016).

Assays:
Experiment in all cases: isothermal titration calorimetry
Type in all cases: binding
Ra2535 TM2 = target: T1, Ra2535 TM2 (Hominimerdicola alba, UniProt E9SAY7); settings: 25 °C, 50 mM sodium phosphate, 150 mM NaCl, pH 6.5; single site model; read-out: affinity constant (converted)
T1 construct: gene CUS_8100
T1 sequence (E9SAY7 entry or part of it): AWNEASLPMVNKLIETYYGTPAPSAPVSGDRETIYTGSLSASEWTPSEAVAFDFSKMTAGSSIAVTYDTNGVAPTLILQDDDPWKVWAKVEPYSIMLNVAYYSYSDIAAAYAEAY
Description: isothermal titration calorimetry on Ra2535 TM2 | The affinity constants of Ra2535 TM1 and TM2 for cellopentaose were similar

Ra2535 TM1 = target: T2, Ra2535 TM1 (Hominimerdicola alba, UniProt E9SAY7); settings: 25 °C, 50 mM sodium phosphate, 150 mM NaCl, pH 6.5; single site model; read-out: affinity constant (converted)
T2 construct: gene CUS_8100
T2 sequence (E9SAY7 entry or part of it): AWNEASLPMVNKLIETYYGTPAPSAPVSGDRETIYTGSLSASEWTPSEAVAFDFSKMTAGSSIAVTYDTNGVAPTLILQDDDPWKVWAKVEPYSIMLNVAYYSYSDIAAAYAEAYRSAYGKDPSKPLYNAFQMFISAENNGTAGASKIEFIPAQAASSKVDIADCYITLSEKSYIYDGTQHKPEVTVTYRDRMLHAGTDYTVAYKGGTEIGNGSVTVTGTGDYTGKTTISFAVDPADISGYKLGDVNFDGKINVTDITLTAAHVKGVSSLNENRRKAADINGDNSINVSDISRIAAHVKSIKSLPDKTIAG
Description: isothermal titration calorimetry on Ra2535 TM1 | The affinity constants of Ra2535 TM1 and TM2 for cellopentaose were similar

Ra1831 TM1 = target: T3, Ra1831 TM1 (Hominimerdicola alba, UniProt E9SGH0); settings: 25 °C, 50 mM sodium phosphate, 150 mM NaCl, pH 6.5; weak, parameters not deducible
T3 construct: gene CUS_6389; truncation: C-terminal half of Ra1831 with region of unknown function (CBM65-like) plus CBM37, GH5 domain removed
T3 sequence (E9SGH0 entry or part of it): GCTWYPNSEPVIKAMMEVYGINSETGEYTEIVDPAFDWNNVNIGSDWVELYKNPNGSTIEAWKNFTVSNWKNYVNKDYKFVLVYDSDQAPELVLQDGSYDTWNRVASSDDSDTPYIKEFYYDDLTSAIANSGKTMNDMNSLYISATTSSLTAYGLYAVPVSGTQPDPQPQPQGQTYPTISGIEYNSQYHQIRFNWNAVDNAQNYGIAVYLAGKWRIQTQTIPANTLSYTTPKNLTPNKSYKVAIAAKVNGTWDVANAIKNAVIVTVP

- Kd (Ra2535 TM2): 5.95 µM
- Kd (Ra2535 TM1): 5.95 µM
SMILES: OC[C@H]1O[C@@H](O[C@H]2[C@H](O)[C@@H](O)[C@H](O[C@H]3[C@H](O)[C@@H](O)[C@H](O[C@H]4[C@H](O)[C@@H](O)[C@H](O[C@H]5[C@H](O)[C@@H](O)C(O)O[C@@H]5CO)O[C@@H]4CO)O[C@@H]3CO)O[C@@H]2CO)[C@H](O)[C@@H](O)[C@@H]1O (stereo partly drawn) [cellopentaose]
- isothermal titration calorimetry (Ra1831 TM1): The representative ITC data for Ra1831 TM1 was not very different from that of TM2
